{"source": "patent US20070197593A1", "about": "“HYDROXYLAMINES AND DERIVATIVES FOR TREATMENT OF INFLAMMATORY CONDITIONS OF THE LIVER” (priority 2006, published 2007)", "key": {"[1]": {"test_system": "LPS induced TNF-alpha in monocytes", "experiment": "LPS induced TNF-alpha in monocytes (TNF alpha assay)", "type": "cell-based", "conditions": "Monocyte; compound 10 uM; 5 ng/mL LPS; read-out: Mean Percent Inhibition of TNF-alpha using 5 ng/mL LPS", "protocol": "This test is a standard methodology for assessing the anti-inflammatory activity of compounds. Table 1 provides Percent Inhibition of LPS induced TNF-alpha in monocytes data for 18 hydroxylamine compounds of the invention. Compounds at different concentrations (0, 1, 2.5 and 10 uM) were incubated with 100 ul freshly collected heparinized blood for 10 minutes. […] Following incubation with LPS, PBS was added (800 uL) and samples were spun for 10 minutes at 1500 g. TNFα protein concentrations were measured using R&D Systems high sensitivity ELISA kit. THP-1 cells (0.5×10^6 cells/mL) were incubated with the compounds (0, 1, 2.5 and 10 uM) for 3 hrs in humidified chamber, 37° C., 5% CO2, 2% FBS in RPMI medium. Cells were induced with 25 ng/mL LPS for another 3 hrs. Cells were collected and spun at 1500 g for 10 minutes. Supernatant was collected and analyzed for TNFα."}, "[2]": {"test_system": "Sprague Dawley rats", "experiment": "28-day intravenous toxicity study in rats, liver histopathology (subacute hepatitis)", "type": "in vivo", "protocol": "Potential toxicity of Compound 1-HCl was evaluated by intravenous administration to Sprague Dawley rats for 28 days. This study was conducted in compliance with FDA Good Laboratory Practice Standards, 21 CFR 58 and in accordance with OECD Principles of Good Laboratory Practice.\nOne hundred twelve Sprague Dawley—HsD: SD rats were randomly divided into eight groups and treated with Compound 1 (“test article”) or vehicle, by intravenous administration via the lateral tail vein (slow bolus) (Table 1).\nAnimals in Groups 1-4 were subjected to a complete necropsy examination. Protocol-specified necropsy procedures included the recording of organ weights (adrenals, brain, hearts, kidneys, liver, testes, ovaries, spleen, thyroids, parathyroids), examination of the external body surface, examination of all orifices, and examination of the cranial, thoracic, and abdominal cavities and their contents. Post-fixation weights for the thyroids/parathyroids were recorded. The following protocol-specified tissues were collected at necropsy: animal identification (not evaluated), abnormalities (gross findings), adrenals, aorta, brain, cecum, cervix, colon, duodenum, epidiymides, esophagus, eye with optic nerve, femur with articular surface, heart, ileum, injection site, jejunum, kidneys, lacrimal glands (exorbital), larynx, liver, lung with mainstem bronchus, mammary gland, mandibular lymph nodes, mesenteric lymph nodes, ovaries, pancreas, pituitary, prostate, rectum, salivary glands, sciatic nerve, seminal vesicles, skeletal muscle (thigh), skin, spinal cord (cervical, midthoracis, lumbar), spleen, sternum with bone marrow, stomach, testes, thymus, thyroid/parathyroid, tongue, trachea, urinary bladder, uterus, and vagina.\nOn day 29, animals were weighed and sacrificed by CO2 inhalation. Protocol-specific tissues were preserved in 10% neutral buffered formalin (NBF). Protocol-requires tissues were embedded in paraffin, sectioned at approximately 5 microns, and processed to slides stained with hematoxylin and eosin (H&E). Histopathological evaluation was performed by a veterinary pathologist on all rats in Group 1 and Group 4 sacrificed on day 29, as well as for all early deaths. Livers for animals in Groups 2 and 3 were evaluated microscopically."}}}
{"smiles": "CC1(C)CC(OC(=O)C2CC2)CC(C)(C)N1O.Cl", "note": "[Compound 1, 1-Hydroxy-4-cyclopropanecarbonyloxy-2,2,6,6-tetramethylpiperidine hydrochloride]", "values": [{"measurement": "inhibition at 10 µM", "setting": "[1]", "result": "68 ± 6", "unit": "%"}, {"measurement": "Subacute hepatic inflammation (hepatitis) incidence, number of rats with minimal subacute hepatitis", "setting": "[2]; Group 2, 1.0 mg/kg/day i.v. 28 days, female rats (8 per group), vehicle Group 1 females 6/8", "result": "one"}, {"measurement": "Subacute hepatic inflammation (hepatitis) incidence", "setting": "[2]; Group 2, 1.0 mg/kg/day i.v. 28 days, male rats (8 per group), vehicle Group 1 males 8/8", "result": "not present in any"}, {"measurement": "Subacute hepatic inflammation (hepatitis) incidence", "setting": "[2]; Group 3, 2.5 mg/kg/day i.v. 28 days, female rats (8 per group), vehicle Group 1 females 6/8", "result": "not present in any"}, {"measurement": "Subacute hepatic inflammation (hepatitis) incidence, number of rats with minimal subacute hepatitis", "setting": "[2]; Group 3, 2.5 mg/kg/day i.v. 28 days, male rats (8 per group), vehicle Group 1 males 8/8", "result": "one"}, {"measurement": "Subacute hepatic inflammation (hepatitis) incidence", "setting": "[2]; Group 4, 7.5 mg/kg/day i.v. 28 days, female rats (8 per group), vehicle Group 1 females 6/8", "result": "not present in any"}, {"measurement": "Subacute hepatic inflammation (hepatitis) incidence", "setting": "[2]; Group 4, 7.5 mg/kg/day i.v. 28 days, male rats (8 per group), vehicle Group 1 males 8/8", "result": "not present in any"}, {"measurement": "Effect on background liver inflammation (idiopathic lesion) in treated rats", "setting": "[2]; Groups 2-4 (1.0-7.5 mg/kg/day i.v. 28 days), male and female rats", "result": "reduction in the incidence of this idiopathic lesion"}]}
